Source: PubChem BioAssay AID256 (DTP/NCI, 2004)
Where “and” joins values, the source holds several entries; their conditions need not be identical. Equal entries are not always repeated. Toxic doses and inconclusive results are not listed.

Test system: CD2F1 mice, L1210 leukemia ip, survival T/C
Test: NCI In Vivo Anticancer Drug Screen. Data for tumor model L1210 Leukemia (intraperitoneal) in CD2F1 (CDF1) mice
Conditions: higher = longer survival
How it was run: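 Activity against a transplanted murine tumor was judged by comparing the compound group with a vehicle group. The outcome in the treated animals was divided by that in the controls.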

[1] = endpoint: mean survival time, dose: 100.0 mg/kg/injection, schedule: Q04DX002 (ip), vehicle: saline with Tween-80
[2] = endpoint: mean survival time, dose: 200.0 mg/kg/injection, schedule: Q04DX002 (ip), vehicle: saline with Tween-80
[3] = endpoint: mean survival time, dose: 400.0 mg/kg/injection, schedule: Q04DX002 (ip), vehicle: saline with Tween-80
[4] = endpoint: mean survival time, dose: 100.0 mg/kg/injection, schedule: Q04DX003 (ip), vehicle: saline with Tween-80
[5] = endpoint: mean survival time, dose: 200.0 mg/kg/injection, schedule: Q04DX003 (ip), vehicle: saline with Tween-80
[6] = endpoint: mean survival time, dose: 100.0 mg/kg/injection, schedule: Q01DX001 (ip), vehicle: saline with Tween-80
[7] = endpoint: mean survival time, dose: 200.0 mg/kg/injection, schedule: Q01DX001 (ip), vehicle: saline with Tween-80
[8] = endpoint: mean survival time, dose: 400.0 mg/kg/injection, schedule: Q01DX001 (ip), vehicle: saline with Tween-80
[9] = endpoint: mean survival time, dose: 100.0 mg/kg/injection, schedule: Q01DX009 (ip), vehicle: saline with Tween-80
[10] = endpoint: mean survival time, dose: 200.0 mg/kg/injection, schedule: Q01DX009 (ip), vehicle: saline with Tween-80
[11] = endpoint: mean survival time, dose: 400.0 mg/kg/injection, schedule: Q01DX009 (ip), vehicle: saline with Tween-80
[12] = endpoint: mean survival time, dose: 12.5 mg/kg/injection, schedule: Q01DX009 (ip), vehicle: saline with Tween-80
[13] = endpoint: mean survival time, dose: 25.0 mg/kg/injection, schedule: Q01DX009 (ip), vehicle: saline with Tween-80
[14] = endpoint: mean survival time, dose: 50.0 mg/kg/injection, schedule: Q01DX009 (ip), vehicle: saline with Tween-80

CCCCCCCCCCCCCCCC(CCCC)CCCCCC (stereo unspecified)
T/C (endpoint: mean survival time, dose: 100.0 mg/kg/injection, schedule: Q01DX001 (ip), vehicle: saline sonified): 108 % of control
T/C (endpoint: mean survival time, dose: 200.0 mg/kg/injection, schedule: Q01DX001 (ip), vehicle: saline sonified): 98 % of control
T/C (endpoint: mean survival time, dose: 400.0 mg/kg/injection, schedule: Q01DX001 (ip), vehicle: saline sonified): 104 % of control

Cc1ccccc1N(CC1CO1)CC1CO1 (stereo unspecified)
T/C (endpoint: mean survival time, dose: 12.5 mg/kg/injection, schedule: Q01DX009 (ip), vehicle: saline): 115 % of control and 104 % of control
T/C (endpoint: mean survival time, dose: 25.0 mg/kg/injection, schedule: Q01DX009 (ip), vehicle: saline): 98 % of control and 106 % of control
T/C (endpoint: mean survival time, dose: 50.0 mg/kg/injection, schedule: Q01DX009 (ip), vehicle: saline): 100 % of control and 111 % of control
T/C (endpoint: mean survival time, dose: 100.0 mg/kg/injection, schedule: Q01DX009 (ip), vehicle: saline): 100 % of control and 106 % of control
T/C (endpoint: mean survival time, dose: 200.0 mg/kg/injection, schedule: Q01DX009 (ip), vehicle: saline): 101 % of control and 108 % of control
T/C (endpoint: mean survival time, dose: 400.0 mg/kg/injection, schedule: Q01DX009 (ip), vehicle: saline): 100 % of control and 106 % of control

O=C(Nc1ccccc1[N+](=O)[O-])OC/C=C/c1ccccc1
T/C [1]: 91 % of control
T/C [2]: 91 % of control
T/C [3]: 87 % of control

C1CC[N-]CC1.C1CC[N-]CC1.O=C(O)CC(=O)O.[Pt+2]
T/C (endpoint: mean survival time, dose: 3.13 mg/kg/injection, schedule: Q04DX003 (ip), vehicle: saline with Tween-80): 100 % of control
T/C (endpoint: mean survival time, dose: 6.25 mg/kg/injection, schedule: Q04DX003 (ip), vehicle: saline with Tween-80): 97 % of control
T/C (endpoint: mean survival time, dose: 12.5 mg/kg/injection, schedule: Q04DX003 (ip), vehicle: saline with Tween-80): 100 % of control
T/C (endpoint: mean survival time, dose: 25.0 mg/kg/injection, schedule: Q04DX003 (ip), vehicle: saline with Tween-80): 100 % of control
T/C (endpoint: mean survival time, dose: 50.0 mg/kg/injection, schedule: Q04DX003 (ip), vehicle: saline with Tween-80): 97 % of control
T/C [4]: 100 % of control
T/C [5]: 96 % of control

CC(C)CN1C(=O)C2C3CCC(O3)C2C1=O (stereo unspecified)
T/C [1]: 95 % of control
T/C [2]: 91 % of control
T/C [3]: 102 % of control

COc1ccc2c(c1O)CNCC2c1ccc(O)c(O)c1 (stereo unspecified)
T/C (endpoint: mean survival time, dose: 75.0 mg/kg/injection, schedule: Q01DX001 (ip), vehicle: saline): 106 % of control
T/C (endpoint: mean survival time, dose: 150.0 mg/kg/injection, schedule: Q01DX001 (ip), vehicle: saline): 106 % of control
T/C (endpoint: mean survival time, dose: 300.0 mg/kg/injection, schedule: Q01DX001 (ip), vehicle: saline): 108 % of control

CC(C)OC(=O)Nc1ccccn1
T/C [1]: 100 % of control
T/C [2]: 100 % of control
T/C [3]: 104 % of control

Cc1ccc(CC(F)F)cc1
T/C [6]: 101 % of control
T/C (endpoint: mean survival time, dose: 100.0 mg/kg/injection, schedule: Q04DX003 (ip), vehicle: saline sonified): 98 % of control
T/C [7]: 101 % of control
T/C (endpoint: mean survival time, dose: 200.0 mg/kg/injection, schedule: Q04DX003 (ip), vehicle: saline sonified): 96 % of control
T/C [8]: 103 % of control
T/C (endpoint: mean survival time, dose: 400.0 mg/kg/injection, schedule: Q04DX003 (ip), vehicle: saline sonified): 96 % of control

BrN1CCCCC1
T/C (endpoint: mean survival time, dose: 100.0 mg/kg/injection, schedule: Q04DX002 (ip), vehicle: saline): 103 % of control
T/C (endpoint: mean survival time, dose: 200.0 mg/kg/injection, schedule: Q04DX002 (ip), vehicle: saline): 122 % of control
T/C (endpoint: mean survival time, dose: 400.0 mg/kg/injection, schedule: Q04DX002 (ip), vehicle: saline): 103 % of control

O=C(c1ccccc1)c1ccc(OCCOc2ccc(C(=O)c3ccccc3)cc2)cc1
T/C [4]: 96 % of control
T/C [5]: 93 % of control
T/C (endpoint: mean survival time, dose: 400.0 mg/kg/injection, schedule: Q04DX003 (ip), vehicle: saline with Tween-80): 93 % of control

N#C/C(=C\c1cc(Cl)ccc1O)C1CCC([N+](=O)[O-])CC1 (stereo unspecified)
T/C [9]: 86 % of control
T/C [10]: 93 % of control
T/C [11]: 91 % of control

CCOC(=O)/C=C/c1cccc([N+](=O)[O-])c1
T/C [6]: 101 % of control
T/C [7]: 101 % of control
T/C [8]: 108 % of control

Cc1cc(Cl)ccc1NC(=O)Nc1nccs1
T/C [12]: 98 % of control
T/C [13]: 98 % of control
T/C [14]: 95 % of control
T/C [9]: 95 % of control
T/C [10]: 100 % of control

Cc1ccc(S(=O)(=O)N/N=C/c2ccccc2)cc1
T/C (endpoint: mean survival time, dose: 50.0 mg/kg/injection, schedule: Q01DX009 (ip), vehicle: Klucel (hydroxypropylcellulose) (HPC)): 95 % of control
T/C (endpoint: mean survival time, dose: 100.0 mg/kg/injection, schedule: Q01DX009 (ip), vehicle: Klucel (hydroxypropylcellulose) (HPC)): 98 % of control
T/C (endpoint: mean survival time, dose: 200.0 mg/kg/injection, schedule: Q01DX009 (ip), vehicle: Klucel (hydroxypropylcellulose) (HPC)): 101 % of control
T/C (endpoint: mean survival time, dose: 400.0 mg/kg/injection, schedule: Q01DX009 (ip), vehicle: Klucel (hydroxypropylcellulose) (HPC)): 91 % of control

CC(C)(CO)COC(=O)NC1=C(N2CC2)C(=O)C(NC(=O)OCC(C)(C)CO)=C(N2CC2)C1=O
T/C (endpoint: mean survival time, dose: 0.75 mg/kg/injection, schedule: Q01DX009 (ip), vehicle: water): 119 % of control and 121 % of control
T/C (endpoint: mean survival time, dose: 1.5 mg/kg/injection, schedule: Q01DX009 (ip), vehicle: water): 122 % of control and 106 % of control
T/C (endpoint: mean survival time, dose: 12.0 mg/kg/injection, schedule: Q01DX009 (ip), vehicle: water): 166 % of control and 169 % of control

Cc1ccccc1OS(=O)(=O)c1ccccc1
T/C (endpoint: mean survival time, dose: 100.0 mg/kg/injection, schedule: Q01DX009 (ip), vehicle: acetone): 98 % of control
T/C (endpoint: mean survival time, dose: 100.0 mg/kg/injection, schedule: Q04DX003 (ip), vehicle: acetone): 100 % of control
T/C (endpoint: mean survival time, dose: 200.0 mg/kg/injection, schedule: Q01DX009 (ip), vehicle: acetone): 98 % of control
T/C (endpoint: mean survival time, dose: 200.0 mg/kg/injection, schedule: Q04DX003 (ip), vehicle: acetone): 94 % of control
T/C (endpoint: mean survival time, dose: 400.0 mg/kg/injection, schedule: Q01DX009 (ip), vehicle: acetone): 96 % of control
T/C (endpoint: mean survival time, dose: 400.0 mg/kg/injection, schedule: Q04DX003 (ip), vehicle: acetone): 96 % of control

O=CC=O
T/C [12]: 100 % of control and 106 % of control
T/C [13]: 103 % of control and 107 % of control
T/C [14]: 97 % of control and 106 % of control
T/C [9]: 115 % of control and 107 % of control
T/C [10]: 106 % of control and 111 % of control
T/C [11]: 120 % of control and 108 % of control

c1ccc2c(c1)-c1ccccc1C1NC21 (stereo unspecified)
T/C (endpoint: median survival time, dose: 6.25 mg/kg/injection, schedule: Q01DX009 (ip), vehicle: saline with Tween-80): 112 % of control
T/C (endpoint: median survival time, dose: 12.5 mg/kg/injection, schedule: Q01DX009 (ip), vehicle: saline with Tween-80): 108 % of control
T/C (endpoint: median survival time, dose: 25.0 mg/kg/injection, schedule: Q01DX009 (ip), vehicle: saline with Tween-80): 120 % of control

Nc1ccc(C(=O)Nc2cccc(S(=O)(=O)F)c2)cc1
T/C [6]: 101 % of control
T/C [7]: 98 % of control
T/C [8]: 93 % of control

CC(C)=CCOC1=CC(=O)C(=O)c2ccccc21
T/C [6]: 103 % of control

COc1ccc(/C=N\NC(=O)CNC(=O)Nc2cccc(C(F)(F)F)c2)cc1OC
T/C [12]: 87 % of control
T/C [9]: 96 % of control
T/C [10]: 96 % of control

O=C1CC(=Nc2ccccc2)CC(=O)N1
T/C (endpoint: mean survival time, dose: 12.5 mg/kg/injection, schedule: Q01DX009 (ip), vehicle: other): 102 % of control
T/C (endpoint: mean survival time, dose: 25.0 mg/kg/injection, schedule: Q01DX009 (ip), vehicle: other): 105 % of control
T/C (endpoint: mean survival time, dose: 50.0 mg/kg/injection, schedule: Q01DX009 (ip), vehicle: other): 91 % of control
T/C (endpoint: mean survival time, dose: 100.0 mg/kg/injection, schedule: Q01DX009 (ip), vehicle: other): 89 % of control
T/C (endpoint: mean survival time, dose: 200.0 mg/kg/injection, schedule: Q01DX009 (ip), vehicle: other): 89 % of control

O=C(O)CSc1ccccc1
T/C (endpoint: mean survival time, dose: 25.0 mg/kg/injection, schedule: Q04DX003 (ip), vehicle: other): 98 % of control
T/C (endpoint: mean survival time, dose: 50.0 mg/kg/injection, schedule: Q04DX003 (ip), vehicle: other): 98 % of control
T/C (endpoint: mean survival time, dose: 100.0 mg/kg/injection, schedule: Q04DX003 (ip), vehicle: saline): 100 % of control
T/C (endpoint: mean survival time, dose: 200.0 mg/kg/injection, schedule: Q04DX003 (ip), vehicle: saline): 98 % of control

O=C(c1ccccc1)C(c1ccccc1)C(SCc1ccccc1)c1ccccc1 (stereo unspecified)
T/C [6]: 88 % of control
T/C [9]: 94 % of control
T/C [7]: 90 % of control
T/C [10]: 100 % of control
T/C [8]: 98 % of control
T/C [11]: 103 % of control

COc1ccc2nc3cc(Cl)ccc3c(NCCC[N+](C)(C)CCCCCCCCCC[N+](C)(C)CCCNc3c4ccc(Cl)cc4nc4ccc(OC)cc34)c2c1
T/C (endpoint: mean survival time, dose: 6.25 mg/kg/injection, schedule: Q01DX009 (ip), vehicle: saline with Tween-80): 105 % of control
